Source: ChEMBL document CHEMBL2440110, “Synthesis of azide derivative and discovery of glyoxalase pathway inhibitor against pathogenic bacteria” (Bioorg Med Chem Lett, 2013)
In brackets after ≈: the same amount, converted by molar mass.

Tests used:
PBMC = assay: Cytotoxicity against PBMC (unknown origin) at 0.05 mM after 8 hrs by MTT assay; assay type: cell-based; settings: 50 µM
Staphylococcus aureus = assay: Antibacterial activity against Staphylococcus aureus after 24 hrs by Alamar blue assay; assay type: functional
[1] = tested on: Burkholderia thailandensis; assay: Antibacterial activity against Burkholderia thailandensis; assay type: functional
[2] = tested on: Mycolicibacterium smegmatis; assay: Antibacterial activity against Mycobacterium smegmatis; assay type: functional

SMILES	Activity (PBMC)	MIC90 (Staphylococcus aureus)	MIC90 [1]	MIC90 [2]
O=C(O)CNC(=O)C(CS)NC(=O)CCC(NC(=O)OCc1ccccc1)C(=O)O (stereo unspecified)	Non-toxic	20 mg/L (≈ 45.3 µM)	12.5 mg/L (≈ 28.3 µM)	
COC(=O)[C@@H](N=[N+]=[N-])[C@@H](OC(=O)CNC(=O)C(CS)NC(=O)CCC(NC(=O)OCc1ccccc1)C(=O)O)C(=O)OC (stereo partly specified)	Non-toxic	5 mg/L (≈ 7.98 µM)		6 mg/L (≈ 9.58 µM)
